Results reported in article PMC9500858 (International Journal of Molecular Sciences, 2022).
Entries after “also recorded” stand apart in the source; their conditions may differ.

Columns and labels:
HCl (1 M) = details: 80 °C for 12 h and 37°C for 24 h, up to 96 h
[1] = 30% (v/v) hydrogen peroxide (H2O2); details: 37 °C for 24 h and 80 °C for 12 h, up to 24 h
[2] = 1 M HCl (acid hydrolysis); details: 37 °C (24 h) and 80 °C (12 h), up to 96 h (time course, Figure 2C); 24 h at 37 °C; 12 h at 80 °C
[3] = 1 M NaOH (base hydrolysis); details: 37 °C (24 h) and 80 °C (12 h), up to 96 h (time course, Figure 2D); 24 h at 37 °C; 12 h at 80 °C

cleaved bond (HCl (1 M)) | cleaved bond [1] | Substance | fragment found [2] | fragment found [3]
Phe-Ile9; also recorded: D-Lys2-Phe | Dmt1-D-Lys2 | HELM PEPTIDE1{[Cc1cc(O)cc(C)c1C[C@H](N)C(=O)[*:2]].[dK].F.F.K.K.P.F.I.L}$$$$V2.0 (N-terminus assumed; SMILES CC[C@H](C)[C@H](NC(=O)[C@H](Cc1ccccc1)NC(=O)[C@@H]1CCCN1C(=O)[C@H](CCCCN)NC(=O)[C@H](CCCCN)NC(=O)[C@H](Cc1ccccc1)NC(=O)[C@H](Cc1ccccc1)NC(=O)[C@@H](CCCCN)NC(=O)[C@@H](N)Cc1c(C)cc(O)cc1C)C(=O)N[C@@H](CC(C)C)C(=O)O) |  | 
 |  | HELM PEPTIDE1{[Cc1cc(O)cc(C)c1C[C@H](N)C(=O)[*:2]].[dK].F.F.K.K.P.F.[CC(C)(C)[C@H](N[*:1])C(=O)[*:2]].L}$$$$V2.0 (N-terminus assumed; SMILES Cc1cc(O)cc(C)c1C[C@H](N)C(=O)N[C@H](CCCCN)C(=O)N[C@@H](Cc1ccccc1)C(=O)N[C@@H](Cc1ccccc1)C(=O)N[C@@H](CCCCN)C(=O)N[C@@H](CCCCN)C(=O)N1CCC[C@H]1C(=O)N[C@@H](Cc1ccccc1)C(=O)N[C@H](C(=O)N[C@@H](CC(C)C)C(=O)O)C(C)(C)C) | compound H—Phe-Lys-Lys-Pro-Phe-Tle-Leu; also recorded: compound K—Pro-Phe-Tle | compound H—Phe-Lys-Lys-Pro-Phe-Tle-Leu; also recorded: compound K—Pro-Phe-Tle; also recorded: compound J (Pro-Phe-Tle-Leu)
